Each structure is given as a SMILES string.

T1 sequence (Q9NYV4 whole entry): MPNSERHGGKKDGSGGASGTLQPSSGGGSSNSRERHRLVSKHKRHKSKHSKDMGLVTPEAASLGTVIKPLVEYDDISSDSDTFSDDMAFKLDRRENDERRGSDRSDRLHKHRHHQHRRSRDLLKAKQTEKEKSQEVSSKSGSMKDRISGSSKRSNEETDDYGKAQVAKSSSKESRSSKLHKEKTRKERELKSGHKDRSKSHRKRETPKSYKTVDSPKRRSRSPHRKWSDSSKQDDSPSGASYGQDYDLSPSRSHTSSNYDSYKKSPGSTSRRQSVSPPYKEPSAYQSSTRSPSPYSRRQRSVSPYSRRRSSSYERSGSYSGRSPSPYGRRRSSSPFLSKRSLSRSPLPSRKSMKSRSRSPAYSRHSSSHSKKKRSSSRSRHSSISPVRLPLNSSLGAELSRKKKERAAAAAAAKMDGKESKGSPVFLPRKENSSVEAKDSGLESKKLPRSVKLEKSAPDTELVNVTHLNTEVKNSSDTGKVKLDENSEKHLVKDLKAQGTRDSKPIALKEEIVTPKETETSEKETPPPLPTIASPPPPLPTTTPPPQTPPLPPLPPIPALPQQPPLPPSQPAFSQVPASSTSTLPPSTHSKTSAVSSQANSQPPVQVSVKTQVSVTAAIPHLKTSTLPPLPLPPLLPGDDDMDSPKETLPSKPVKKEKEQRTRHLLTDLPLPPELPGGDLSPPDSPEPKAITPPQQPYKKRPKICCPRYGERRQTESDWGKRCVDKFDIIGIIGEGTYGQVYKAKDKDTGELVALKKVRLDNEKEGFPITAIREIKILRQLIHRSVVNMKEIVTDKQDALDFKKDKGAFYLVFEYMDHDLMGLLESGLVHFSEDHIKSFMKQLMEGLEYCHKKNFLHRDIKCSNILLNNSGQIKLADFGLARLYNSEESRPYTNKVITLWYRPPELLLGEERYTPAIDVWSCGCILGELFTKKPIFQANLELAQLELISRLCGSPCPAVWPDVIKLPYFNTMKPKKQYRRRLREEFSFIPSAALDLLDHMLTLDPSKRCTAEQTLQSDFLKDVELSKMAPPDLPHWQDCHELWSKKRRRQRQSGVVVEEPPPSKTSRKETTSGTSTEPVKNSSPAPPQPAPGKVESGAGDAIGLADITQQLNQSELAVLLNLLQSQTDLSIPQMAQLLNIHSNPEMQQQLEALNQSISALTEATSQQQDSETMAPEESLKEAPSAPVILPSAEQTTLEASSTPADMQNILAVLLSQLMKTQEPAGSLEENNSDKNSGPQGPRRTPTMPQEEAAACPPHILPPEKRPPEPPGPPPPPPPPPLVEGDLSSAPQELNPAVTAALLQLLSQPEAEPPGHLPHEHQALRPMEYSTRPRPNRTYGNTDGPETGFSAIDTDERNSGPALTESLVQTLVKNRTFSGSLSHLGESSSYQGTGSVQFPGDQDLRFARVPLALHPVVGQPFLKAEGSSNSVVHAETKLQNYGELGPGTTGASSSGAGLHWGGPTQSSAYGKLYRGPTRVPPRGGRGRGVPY
T1 sequence (O75909 whole entry partner): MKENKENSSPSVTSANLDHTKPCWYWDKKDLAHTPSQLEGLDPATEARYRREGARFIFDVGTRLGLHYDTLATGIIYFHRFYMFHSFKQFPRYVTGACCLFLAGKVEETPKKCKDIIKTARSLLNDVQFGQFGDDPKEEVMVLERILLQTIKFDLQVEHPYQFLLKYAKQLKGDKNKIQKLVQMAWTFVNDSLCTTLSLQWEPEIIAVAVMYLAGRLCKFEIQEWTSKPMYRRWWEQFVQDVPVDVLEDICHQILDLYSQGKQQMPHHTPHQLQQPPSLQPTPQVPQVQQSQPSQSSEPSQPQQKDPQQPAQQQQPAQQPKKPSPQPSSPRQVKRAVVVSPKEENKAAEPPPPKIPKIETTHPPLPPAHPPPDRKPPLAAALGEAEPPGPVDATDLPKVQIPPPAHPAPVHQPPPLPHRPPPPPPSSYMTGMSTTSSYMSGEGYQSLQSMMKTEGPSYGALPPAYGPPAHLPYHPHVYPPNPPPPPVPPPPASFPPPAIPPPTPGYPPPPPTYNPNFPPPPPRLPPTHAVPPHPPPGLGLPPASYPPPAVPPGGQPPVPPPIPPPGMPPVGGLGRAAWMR

This assay has as its target T1, CDK12 complexed with Cyclin K (Homo sapiens, UniProt Q9NYV4).
T1 construct: GST (N)
The assay can be described thus: Alternative CDK Enzymatic Assays (HTRF, pre-incubation with compounds and 1 mM ATP), Example A2. As to conditions: enzyme pre-incubated with compounds and 1 mM ATP for 60 minutes; reaction 120 minutes at 25° C. Type of assay: biochemical. The text has this:
Example A2. Alternative CDK Enzymatic Assays
The following activity of the CDK enzymes in complex with their respective cyclins we assayed: CDK1 complexed with Cyclin B1; CDK2 complexed with Cyclin E1; CDK4 complexed with Cyclin D1; CDK6 complexed with Cyclin D1; CDK6 complexed with Cyclin D3; CDK9 complexed with Cyclin T1; CDK7 complexed with Cyclin H/MAT1; CDK2 complexed with Cyclin A2; CDK5 complexed with p35; CDK12 complexed with Cyclin K; CDK13 complexed with Cyclin K. These in vitro enzyme activity are assayed using homogeneous time-resolved energy transfer (HTRF), which measures phosphorylation of a peptide substrate. The LANCER Ultra kinase assay (PerkinElmer) uses a ULight™-labeled EIF4E-binding protein 1 (THR37/46) peptide (DYSTTPGGTLFSTTPGTRI (SEQ ID NO: 1)) substrate and a Europium-labeled anti-phospho-4E-BP1 antibody (CDK2, CDK1, CDK4, CDK6, CDK9, CDK12, CDK13) or ULight™-labeled Myelin Basic Protein peptide (VTPRTPPP (SEQ ID NO: 2)) substrate and a Europium-labeled anti-phospho-MBP antibody (CDK7). Each CDK enzyme activity assays utilized human CDK co-expressed as N-terminal GST-tagged protein with its full length cyclin partner using a baculovirus expression system.
Enzyme was pre-incubated with compounds and 1 mM ATP for 60 minutes (CDK 1, 2, 4, 6, 9, 7, 12, 13) prior to the addition of ATP and Ulight-peptide (1 mM and 50 nM final, respectively), in assay buffer containing 50 mM HEPES pH 7.5, 1 mM EGTA, 10 mM MgCl2, 2 mM DTT, 0.05 mg/mL BSA, and 0.01% Tween 20. The reaction was then incubated for 120 minutes at 25° C. incubator. The reactions were stopped by the addition of EDTA and Europium labeled antibody, for a final concentration of 15 mM and 0.5-1.5 nM, respectively. HTRF signals were read after 15-120 minutes. A ratio of fluorescence transferred to the labeled substrate (665 nm) relative to fluorescence of the Europium donor (620 nm) represents the extent of phosphorylation. Ratios for treated wells were normalized to DMSO only (100% activity) and no enzyme (0% activity) controls. Normalized data was analyzed using a three or four parameter dose response curve to determine IC50 for each compound and are shown in Table B. Control reference inhibitors were included on each plate.
With `C=CC(=O)Nc1ccc2c(c1)nc(N1CC[C@H](F)[C@@H](Nc3ncc(C#N)cn3)C1)n2C` [Example 126, N-(2-((3S,4S)-3-((5-Cyanopyrimidin-2-yl)amino)-4-fluoropiperidin-1-yl)-1-methyl-1H-benzo[d]imidazol-5-yl)acrylamide], the IC50 is below 50 nM.
Consider `C=CC(=O)Nc1ccc2c(c1)nc(N1CCC(F)(F)[C@@H](Nc3ncc(C#N)cn3)C1)n2C` [Example 127, (S)—N-(2-(3-((5-Cyanopyrimidin-2-yl)amino)-4,4-difluoropiperidin-1-yl)-1-methyl-1H-benzo[d]imidazol-5-yl)acrylamide], for which the IC50 is below 50 nM.
Regarding `C=CC(=O)N1CCN(c2ccc3c(c2)nc(N2CCC[C@@H](Nc4ncc(C(F)(F)F)cn4)C2)n3C)CC1` [Example 128, (R)-1-(4-(1-Methyl-2-(3-((5-(trifluoromethyl)pyrimidin-2-yl)amino)piperidin-1-yl)-1H-benzo[d]imidazol-5-yl)piperazin-1-yl)prop-2-en-1-one], the IC50 is 50 to 500 nM.
For `C=CC(=O)Nc1ccc2c(c1)nc(N1CCC[C@@H](Nc3ncc(C#N)s3)C1)n2C` [Example 129, (R)—N-(2-(3-((5-Cyanothiazol-2-yl)amino)piperidin-1-yl)-1-methyl-1H-benzo[d]imidazol-5-yl)acrylamide] the value was below 50 nM; for `C=CC(=O)Nc1ccc2c(c1)nc(N1CCC[C@@H](Nc3ncc(C(F)(F)F)s3)C1)n2C` [Example 130, (R)—N-(1-Methyl-2-(3-((5-(trifluoromethyl)thiazol-2-yl)amino)piperidin-1-yl)-1H-benzo[d]imidazol-5-yl)acrylamide], below 50 nM.
Then `C=CC(=O)Nc1cc2nc(N3C[C@H](F)C[C@@H](Nc4ncc(C(F)(F)F)cn4)C3)n(C)c2cc1CC` [Example 131, N-(6-Ethyl-2-((3R,5R)-3-fluoro-5-((5-(trifluoromethyl)pyrimidin-2-yl)amino)piperidin-1-yl)-1-methyl-1H-benzo[d]imidazol-5-yl)acrylamide], with 50 to 500 nM; and `C=CC(=O)Nc1cc2nc(N3C[C@H](F)C[C@@H](Nc4ncc(C(F)(F)F)cn4)C3)n(C)c2cc1F` [Example 132, N-(6-Fluoro-2-((3R,5R)-3-fluoro-5-((5-(trifluoromethyl)pyrimidin-2-yl)amino)piperidin-1-yl)-1-methyl-1H-benzo[d]imidazol-5-yl)acrylamide], with below 50 nM.
Regarding `C=CC(=O)Nc1cc2nc(N3C[C@H](F)C[C@@H](Nc4ncc(C(F)(F)F)cn4)C3)n(C)c2cc1COC` [Example 133, N-(2-((3R,5R)-3-Fluoro-5-((5-(trifluoromethyl)pyrimidin-2-yl)amino)piperidin-1-yl)-6-(methoxymethyl)-1-methyl-1H-benzo[d]imidazol-5-yl)acrylamide], the IC50 was below 50 nM.
Then `C=CC(=O)Nc1cc2nc(N3C[C@H](F)C[C@@H](Nc4ncc(C(F)(F)F)cn4)C3)n(C)c2cc1Cl` [Example 134, N-(6-Chloro-2-((3R,5R)-3-fluoro-5-((5-(trifluoromethyl)pyrimidin-2-yl)amino)piperidin-1-yl)-1-methyl-1H-benzo[d]imidazol-5-yl)acrylamide], with below 50 nM; and `[2H]C([2H])([2H])c1cc2c(cc1NC(=O)C=C)nc(N1C[C@H](F)C[C@@H](Nc3ncc(C(F)(F)F)cn3)C1)n2C` [Example 135, N-(2-((3R,5R)-3-Fluoro-5-((5-(trifluoromethyl)pyrimidin-2-yl)amino)piperidin-1-yl)-1-methyl-6-(methyl-d3)-1H-benzo[d]imidazol-5-yl)acrylamide], with below 50 nM; and `C=CC(=O)Nc1cc2nc(N3C[C@H](F)C[C@@H](Nc4ncc(C(F)(F)F)cn4)C3)n(C)c2cc1N1CCCC1` [Example 136, N-(2-((3R,5R)-3-Fluoro-5-((5-(trifluoromethyl)pyrimidin-2-yl)amino)piperidin-1-yl)-1-methyl-6-(pyrrolidin-1-yl)-1H-benzo[d]imidazol-5-yl)acrylamide], with below 50 nM.
Then `C=CC(=O)Nc1cc2nc(N3C[C@H](F)C[C@@H](Nc4ncc(C(F)(F)F)cn4)C3)n(C)c2cc1C(=O)N1CCOCC1` [Example 137, N-(2-((3R,5R)-3-Fluoro-5-((5-(trifluoromethyl)pyrimidin-2-yl)amino)piperidin-1-yl)-1-methyl-6-(morpholine-4-carbonyl)-1H-benzo[d]imidazol-5-yl)acrylamide], with 50 to 500 nM; and `C=CC(=O)Nc1cc2nc(N3C[C@H](F)C[C@@H](Nc4ncc(C(F)(F)F)cn4)C3)n(C)c2cc1C(=O)N1CCCC1` [Example 138, N-(2-((3R,5R)-3-Fluoro-5-((5-(trifluoromethyl)pyrimidin-2-yl)amino)piperidin-1-yl)-1-methyl-6-(pyrrolidine-1-carbonyl)-1H-benzo[d]imidazol-5-yl)acrylamide], with 50 to 500 nM; and `C=CC(=O)Nc1cc2nc(N3C[C@H](F)C[C@@H](Nc4ncc(C(F)(F)F)cn4)C3)n(C)c2cc1N1CCOCC1` [Example 139, N-(2-((3R,5R)-3-Fluoro-5-((5-(trifluoromethyl)pyrimidin-2-yl)amino)piperidin-1-yl)-1-methyl-6-morpholino-1H-benzo[d]imidazol-5-yl)acrylamide], with 50 to 500 nM.
Then `C=CC(=O)Nc1cc2nc(N3C[C@H](F)C[C@@H](Nc4ncc(C(F)(F)F)cn4)C3)n(C)c2cc1C#N` [Example 140, N-(6-Cyano-2-((3R,5R)-3-fluoro-5-((5-(trifluoromethyl)pyrimidin-2-yl)amino)piperidin-1-yl)-1-methyl-1H-benzo[d]imidazol-5-yl)acrylamide], with below 50 nM; and `C=CC(=O)Nc1cc2nc(N3C[C@H](F)C[C@@H](Nc4ncc(C(F)(F)F)cn4)C3)n(C)c2cc1Br` [Example 141, N-(6-Bromo-2-((3R,5R)-3-fluoro-5-((5-(trifluoromethyl)pyrimidin-2-yl)amino)piperidin-1-yl)-1-methyl-1H-benzo[d]imidazol-5-yl)acrylamide], with below 50 nM.
For `C=CC(=O)Nc1ccc2c(c1)nc(N1CCC[C@@H](Nc3ncc(C#N)c(N4CC[C@@H](N(C)C)C4)n3)C1)n2C` [Example 142, N-(2-((R)-3-((5-cyano-4-((R)-3-(dimethylamino)pyrrolidin-1-yl)pyrimidin-2-yl)amino)piperidin-1-yl)-1-methyl-1H-benzo[d]imidazol-5-yl)acrylamide], the IC50 is below 50 nM.
Then `C=CC(=O)Nc1ccc2c(c1)nc(N1CCC[C@@H](Nc3ncc(C#N)cn3)C1)n2C` [Example 143, (R)—N-(2-(3-((5-Cyanopyrimidin-2-yl)amino)piperidin-1-yl)-1-methyl-1H-benzo[d]imidazol-5-yl)acrylamide], with below 50 nM; and `C=CC(=O)Nc1c(C)cc2c(nc(N3C[C@H](F)C[C@@H](Nc4ncc(C(F)(F)F)cn4)C3)n2C)c1C` [Example 144, N-(2-((3R,5R)-3-Fluoro-5-((5-(trifluoromethyl)pyrimidin-2-yl)amino)piperidin-1-yl)-1,4,6-trimethyl-1H-benzo[d]imidazol-5-yl)acrylamide], with above 500 nM.
For `C=CC(=O)Nc1c(C)cc2c(nc(N3C[C@H](F)C[C@@H](Nc4ncc(C#N)cn4)C3)n2C)c1Br` [Example 145, N-(4-Bromo-2-((3R,5R)-3-((5-cyanopyrimidin-2-yl)amino)-5-fluoropiperidin-1-yl)-1,6-dimethyl-1H-benzo[d]imidazol-5-yl)acrylamide] the value was 50 to 500 nM.
For `C=CC(=O)Nc1c(C)cc2c(nc(N3C[C@H](F)C[C@@H](Nc4ncc(C(F)(F)F)cn4)C3)n2C)c1Br` [Example 146, N-(4-Bromo-2-((3R,5R)-3-fluoro-5-((5-(trifluoromethyl)pyrimidin-2-yl)amino)piperidin-1-yl)-1,6-dimethyl-1H-benzo[d]imidazol-5-yl)acrylamide], the IC50 lay within 50 to 500 nM.
As to `C=CC(=O)Nc1cc2nc(N3C[C@H](O)C[C@@H](Nc4ncc(C#N)cn4)C3)n(C)c2cc1C` [Example 147, N-(2-((3R,5R)-3-((5-Cyanopyrimidin-2-yl)amino)-5-hydroxypiperidin-1-yl)-1,6-dimethyl-1H-benzo[d]imidazol-5-yl)acrylamide], the IC50 was 50 to 500 nM.
`C=CC(=O)Nc1cc2nc(N3CC[C@@H](O)[C@@H](Nc4ncc(C(F)(F)F)cn4)C3)n(C)c2cc1C` [Example 148, N-(2-((3S,4R)-4-Hydroxy-3-((5-(trifluoromethyl)pyrimidin-2-yl)amino)piperidin-1-yl)-1,6-dimethyl-1H-benzo[d]imidazol-5-yl)acrylamide]: the IC50 was above 500 nM.

For the origin of these results see patent publication US12643881B2, “Bicyclic amine CDK12 inhibitors” (Incyte Corporation, priority 2021, dated 2026).
